According to PubChem BioAssay AID2060622 (Molecular Pharmacology Branch, DTP, NCI, 2025):

Tested on: 242566-281-R-J2-PDC complex spheroid viability
Experiment: Anticancer human tumor 242566-281-R-J2-PDC patient-derived pancreatic carcinoma cell line growth inhibition [CLK]
Details: for IC50: curve of first compound; for viability, T/C: stronger effect = lower value
How it was run: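 Patient-derived tumor cells grown as complex spheroids with HUVEC endothelial cells and mesenchymal stem cells, treated with drug combinations. Concentrations descend in half-log steps from near clinical Cmax, or from 10 microM if Cmax unknown.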
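Also: spheroids exposed to compounds for 7 days before readout.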
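For viability, T/C in this document: 100% = DMSO vehicle control wells.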

For `CC(C)CC(NC(=O)C(Cc1ccccc1)NC(=O)c1cnccn1)B(O)O` (centres undefined) + CNC(=O)c1ccc(Nc2nc(OC3CCCC3)c3c(-c4ccc5nc(C)oc5c4)c[nH]c3n2)c(OC)c1, which IC50 (second compound 0.0316 µM) is on record?
Its IC50 is 4.24 nM.

And the IC50 (second compound 0.1 µM)?
Its IC50 is 3.81 nM.

What about the IC50 (second compound 0.316 µM) of the same compound?
Its IC50 is 2.77 nM.

And the IC50 (second compound 1 µM)?
The IC50 was 1.56 nM.

What about the IC50 (second compound 3.16 µM) of the same compound?
The IC50 was 1.19 nM.

And the IC50 (second compound 10 µM)?
The IC50 was 1.15 nM.

And the viability, T/C (second compound 0.0316 µM, first compound 0.000949 µM)?
Its viability, T/C is 82.2%.

What about the viability, T/C (second compound 0.0316 µM, first compound 0.003 µM) of the same compound?
Its viability, T/C is 71.1%.

What about the viability, T/C (second compound 0.0316 µM, first compound 0.00949 µM) of the same compound?
Its viability, T/C is 0.73%.

What about the viability, T/C (second compound 0.0316 µM, first compound 0.03 µM) of the same compound?
Its viability, T/C is 0.63%.

What about the viability, T/C (second compound 0.0316 µM, first compound 0.0949 µM) of the same compound?
Its viability, T/C is 0.4%.

What about the viability, T/C (second compound 0.0316 µM, first compound 0.3 µM) of the same compound?
Its viability, T/C is 0.56%.

And the viability, T/C (second compound 0.1 µM, first compound 0.000949 µM)?
The viability, T/C was 83.3%.

What about the viability, T/C (second compound 0.1 µM, first compound 0.003 µM) of the same compound?
The viability, T/C was 62.8%.

What about the viability, T/C (second compound 0.1 µM, first compound 0.00949 µM) of the same compound?
The viability, T/C was 0.92%.

And the viability, T/C (second compound 0.1 µM, first compound 0.03 µM)?
Its viability, T/C is 0.76%.

What about the viability, T/C (second compound 0.1 µM, first compound 0.0949 µM) of the same compound?
The viability, T/C was 0.35%.

And the viability, T/C (second compound 0.1 µM, first compound 0.3 µM)?
The viability, T/C was 0.57%.

And the viability, T/C (second compound 0.316 µM, first compound 0.000949 µM)?
Its viability, T/C is 83%.

And the viability, T/C (second compound 0.316 µM, first compound 0.003 µM)?
Its viability, T/C is 47.5%.

And the viability, T/C (second compound 0.316 µM, first compound 0.00949 µM)?
Its viability, T/C is 0.7%.

And the viability, T/C (second compound 0.316 µM, first compound 0.03 µM)?
Its viability, T/C is 0.78%.

What about the viability, T/C (second compound 0.316 µM, first compound 0.0949 µM) of the same compound?
The viability, T/C was 0.3%.

What about the viability, T/C (second compound 0.316 µM, first compound 0.3 µM) of the same compound?
The viability, T/C was 0.78%.

And the viability, T/C (second compound 1 µM, first compound 0.000949 µM)?
Its viability, T/C is 73.2%.

And the viability, T/C (second compound 1 µM, first compound 0.003 µM)?
The viability, T/C was 19.7%.

What about the viability, T/C (second compound 1 µM, first compound 0.00949 µM) of the same compound?
The viability, T/C was 0.52%.

What about the viability, T/C (second compound 1 µM, first compound 0.03 µM) of the same compound?
Its viability, T/C is 0.28%.

What about the viability, T/C (second compound 1 µM, first compound 0.0949 µM) of the same compound?
The viability, T/C was 0.45%.

And the viability, T/C (second compound 1 µM, first compound 0.3 µM)?
The viability, T/C was 0.4%.

What about the viability, T/C (second compound 3.16 µM, first compound 0.000949 µM) of the same compound?
Its viability, T/C is 60.6%.

What about the viability, T/C (second compound 3.16 µM, first compound 0.003 µM) of the same compound?
The viability, T/C was 6.63%.

What about the viability, T/C (second compound 3.16 µM, first compound 0.00949 µM) of the same compound?
Its viability, T/C is 0.34%.

And the viability, T/C (second compound 3.16 µM, first compound 0.03 µM)?
The viability, T/C was 0.29%.

And the viability, T/C (second compound 3.16 µM, first compound 0.0949 µM)?
Its viability, T/C is 0.35%.

What about the viability, T/C (second compound 3.16 µM, first compound 0.3 µM) of the same compound?
Its viability, T/C is 0.37%.

What about the viability, T/C (second compound 10 µM, first compound 0.000949 µM) of the same compound?
Its viability, T/C is 59.4%.

And the viability, T/C (second compound 10 µM, first compound 0.003 µM)?
Its viability, T/C is 3.83%.

And the viability, T/C (second compound 10 µM, first compound 0.00949 µM)?
The viability, T/C was 0.57%.

What about the viability, T/C (second compound 10 µM, first compound 0.03 µM) of the same compound?
The viability, T/C was 0.53%.

What about the viability, T/C (second compound 10 µM, first compound 0.0949 µM) of the same compound?
The viability, T/C was 0.43%.

What about the viability, T/C (second compound 10 µM, first compound 0.3 µM) of the same compound?
The viability, T/C was 0.42%.

`CC1(C)CCC(CN2CCN(c3ccc(C(=O)NS(=O)(=O)c4ccc(NCC5CCOCC5)c([N+](=O)[O-])c4)c(Oc4cnc5[nH]ccc5c4)c3)CC2)=C(c2ccc(Cl)cc2)C1` + CNC(=O)c1ccc(Nc2nc(OC3CCCC3)c3c(-c4ccc5nc(C)oc5c4)c[nH]c3n2)c(OC)c1 was tested. Which IC50 (second compound 0.0316 µM) did it give?
Its IC50 is > 10000 nM.

What about the IC50 (second compound 0.1 µM) of the same compound?
Its IC50 is > 10000 nM.

What about the IC50 (second compound 0.316 µM) of the same compound?
The IC50 was 10000 nM.

And the IC50 (second compound 1 µM)?
Its IC50 is > 10000 nM.

What about the IC50 (second compound 3.16 µM) of the same compound?
Its IC50 is > 10000 nM.

What about the IC50 (second compound 10 µM) of the same compound?
Its IC50 is > 10000 nM.

What about the viability, T/C (second compound 0.0316 µM, first compound 0.0316 µM) of the same compound?
Its viability, T/C is 80%.

And the viability, T/C (second compound 0.0316 µM, first compound 0.1 µM)?
Its viability, T/C is 95.8%.

And the viability, T/C (second compound 0.0316 µM, first compound 0.316 µM)?
The viability, T/C was 113%.

What about the viability, T/C (second compound 0.0316 µM, first compound 1 µM) of the same compound?
The viability, T/C was 123%.

And the viability, T/C (second compound 0.0316 µM, first compound 3.16 µM)?
The viability, T/C was 115%.

And the viability, T/C (second compound 0.0316 µM, first compound 10 µM)?
Its viability, T/C is 96.4%.

And the viability, T/C (second compound 0.1 µM, first compound 0.0316 µM)?
Its viability, T/C is 83%.

What about the viability, T/C (second compound 0.1 µM, first compound 0.1 µM) of the same compound?
Its viability, T/C is 92%.

And the viability, T/C (second compound 0.1 µM, first compound 0.316 µM)?
Its viability, T/C is 97.2%.

What about the viability, T/C (second compound 0.1 µM, first compound 1 µM) of the same compound?
Its viability, T/C is 131%.

And the viability, T/C (second compound 0.1 µM, first compound 3.16 µM)?
Its viability, T/C is 105%.

What about the viability, T/C (second compound 0.1 µM, first compound 10 µM) of the same compound?
The viability, T/C was 73.9%.

And the viability, T/C (second compound 0.316 µM, first compound 0.0316 µM)?
The viability, T/C was 87.3%.

And the viability, T/C (second compound 0.316 µM, first compound 0.1 µM)?
Its viability, T/C is 96.6%.

And the viability, T/C (second compound 0.316 µM, first compound 0.316 µM)?
The viability, T/C was 72%.

And the viability, T/C (second compound 0.316 µM, first compound 1 µM)?
Its viability, T/C is 92.4%.

What about the viability, T/C (second compound 0.316 µM, first compound 3.16 µM) of the same compound?
Its viability, T/C is 84.8%.

What about the viability, T/C (second compound 0.316 µM, first compound 10 µM) of the same compound?
Its viability, T/C is 50%.

And the viability, T/C (second compound 1 µM, first compound 0.0316 µM)?
Its viability, T/C is 71.2%.

And the viability, T/C (second compound 1 µM, first compound 0.1 µM)?
Its viability, T/C is 68.4%.

And the viability, T/C (second compound 1 µM, first compound 0.316 µM)?
Its viability, T/C is 69.7%.

And the viability, T/C (second compound 1 µM, first compound 1 µM)?
The viability, T/C was 73%.

And the viability, T/C (second compound 1 µM, first compound 3.16 µM)?
Its viability, T/C is 77.9%.

And the viability, T/C (second compound 1 µM, first compound 10 µM)?
Its viability, T/C is 60.4%.

And the viability, T/C (second compound 3.16 µM, first compound 0.0316 µM)?
The viability, T/C was 51.9%.

And the viability, T/C (second compound 3.16 µM, first compound 0.1 µM)?
Its viability, T/C is 54%.

And the viability, T/C (second compound 3.16 µM, first compound 0.316 µM)?
The viability, T/C was 57.8%.

What about the viability, T/C (second compound 3.16 µM, first compound 1 µM) of the same compound?
Its viability, T/C is 61.8%.

What about the viability, T/C (second compound 3.16 µM, first compound 3.16 µM) of the same compound?
Its viability, T/C is 66.3%.

And the viability, T/C (second compound 3.16 µM, first compound 10 µM)?
Its viability, T/C is 45.4%.

And the viability, T/C (second compound 10 µM, first compound 0.0316 µM)?
The viability, T/C was 54.6%.

What about the viability, T/C (second compound 10 µM, first compound 0.1 µM) of the same compound?
The viability, T/C was 49.2%.

What about the viability, T/C (second compound 10 µM, first compound 0.316 µM) of the same compound?
Its viability, T/C is 54.3%.

What about the viability, T/C (second compound 10 µM, first compound 1 µM) of the same compound?
Its viability, T/C is 55.3%.

What about the viability, T/C (second compound 10 µM, first compound 3.16 µM) of the same compound?
Its viability, T/C is 60.2%.

And the viability, T/C (second compound 10 µM, first compound 10 µM)?
Its viability, T/C is 46.8%.
